# Experimental data: patent publication US6784153B1, “Methods of homing molecules to lung using membrane dipeptidase” (The Burnham Institute, priority 1998, dated 2004)
# Tests used:
# MDP [1] = conditions: cited from earlier work
# lung primary cells = assay: phage binding assay on lung primary cells; set-up: species or system mice; conditions: 150 μM peptide
# Experimental: Phage binding to primary cells was performed as follows. Briefly, Balb/c mice (Harlan Sprague Dawley) were anesthetized with 0.017 ml/g of Avertin as described in Gardner et al., Lab. […] Under deep anesthesia, mice were perfused through the heart with 10 ml Dulbecco's modified Eagle's medium (DMEM; Irvine Scientific; Santa Ana, Calif.). The lungs, kidneys and brain were then collected, minced, placed in 2 ml of DMEM containing 0.5% BSA (Intergen; Purchase, N.Y.) and 0.5 μg/ml collagenase V (SIGMA) and incubated at 37° C. for 25 minutes. Following collagenase treatment, the tissue was forced through a […] pore cell strainer (Becton Dickinson; Franklin Lake, N.J.). The filtered cells were washed once with 10 ml DMEM supplemented with 10% serum.
# For the binding reaction, 10^9 transducing units (TU) of phage were incubated with 5×10^6 cells in 1 ml DMEM supplemented with 10% serum. The binding was performed at 4° C. for 2 hours with gentle agitation. After the binding reaction, the cells were washed four times with 1 ml of DMEM supplemented with 10% serum at room temperature for 5 to 10 minutes each time. The cells were centrifuged, and the cell pellet resuspended in 100 μl of DMEM and transferred to a new tube. […] The bacteria were then diluted in 10 ml of LB culture media supplemented with 0.2 μg/ml tetracycline, and incubated for another 30 minutes at room temperature. Serial dilutions of the bacterial culture were plated on LB plates containing 40 μg/ml tetracycline. Plates were incubated at 37° C. overnight before the colonies were counted (transducing units, TU).
# [2] = biological target: T1, 55 kDa lung vascular surface protein (Mus musculus, UniProt P31428); assay: peptide affinity chromatography of in vivo biotinylated lung extract; format: binding; conditions: elution with GFE-1 peptide
# T1 construct: from tissue; host or cells: Balb/c mouse lung, in vivo biotinylated, octylglucoside extract
# T1 sequence (P31428 17-384): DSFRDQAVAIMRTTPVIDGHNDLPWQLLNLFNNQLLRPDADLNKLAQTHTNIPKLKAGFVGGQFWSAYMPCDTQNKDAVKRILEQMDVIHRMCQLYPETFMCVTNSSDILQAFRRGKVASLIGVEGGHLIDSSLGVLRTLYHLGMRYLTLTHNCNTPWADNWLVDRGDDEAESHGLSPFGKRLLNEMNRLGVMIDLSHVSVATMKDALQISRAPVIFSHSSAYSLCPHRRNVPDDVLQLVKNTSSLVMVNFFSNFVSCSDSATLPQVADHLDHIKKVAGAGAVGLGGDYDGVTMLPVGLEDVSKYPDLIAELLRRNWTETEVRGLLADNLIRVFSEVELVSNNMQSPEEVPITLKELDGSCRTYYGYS
# Experimental: In vivo biotinylation of endothelial cell surface proteins was performed as previously described in De La Fuente et al., Am. J. Physiol. […] Briefly, Balb/c mice were anesthetized with Avertin and perfused slowly through the heart for 10 to 15 minutes with approximately 15 ml of PBS containing 0.5 mg/ml of sulfo-NHS-LC-biotin (Pierce; Rockford, Ill.). Well perfused lungs or control tissues such as brain were then collected and incubated on ice for 20 minutes. The tissues were then homogenized for preparation of extracts as described further below.
# For preparation of extracts, mouse or rat lungs were first minced and then homogenized with a Brinkman homogenizer (Brinkman; Wesbury, N.Y.) in a minimal volume (2.5 ml/g of tissue) of cold PBS containing 100 mM N-octyl-β-D-glucopyranoside (Calbiochem; La Jolla, Calif.) with 1 mM phenylmethylsulfonyl fluoride (PMSF), 20 μg/ml aprotinin and 1 μg/ml leupeptin (PBS/octylglucoside). The homogenized tissue was incubated on ice for 2 hours, and then centrifuged at 12,000×g for 30 minutes to remove cell debris. The pooled supernatants were cleared of any debris prior to affinity chromatogaphy.
# All steps were performed at 4° C. […] The matrix contained approximately 2 mg/ml of peptide. […] The extract was applied to the column, and the flow-through re-applied over a period of 90 minutes. The column was then washed with 20 volumes of column buffer. […]
# MDP [3] = biological target: T2, MDP (Mus musculus, UniProt P31428); assay: inhibition of MDP activity (hydrolysis of Gly-D-Phe, fluorimetric); format: biochemical, murine; conditions: Gly-D-Phe 0.5 mM; extracts from MDP-expressing COS-1 cells
# T2 construct: The amplified 1.3 kb murine MDP cDNA was digested with KpnI and XbaI, and inserted into the same sites of the pcDNA3 expression vector; expressed in transfected cells; host or cells: COS-1 cells, pcDNA3 expression vector
# T2 sequence (P31428 17-384): T1 sequence (P31428 17-384)
# Experimental: […] […] Fluorescence was measured using an fmax fluorescence microplate reader from Molecular Devices (Sunnyvale, Calif.).
# (§1) Phage binding to COS-1 cells transfected with MDP was determined as follows. Briefly, 10^7 COS-1 cells were transfected with 10 μg of either the MDP expression vector or the vector alone. After 48 hours, cells were scraped gently from the dish, washed once, and subjected to the phage binding assay or membrane dipeptidase activity assay described above. For the phage binding assay, 5×10^6 cells and 10^10 transducing units (TU) of phage input were used. For measurement of membrane dipeptidase activity, 10^6 cells were lysed in 100 μl of PBS/octylglycoside without protease inhibitors. A 10 μl aliquot of the extract was used to measure MDP activity.
# Fluorimetric detection of D-Phe was performed as described above.
# [4] = tested on: C8161 human melanoma cells
# skin [5] = assay: in vivo homing of phage displaying peptides to skin; set-up: species or system mice
# Experimental: For in vivo panning of skin, two month old BALB/c nude mice were used to avoid contamination by hair. The mice were injected intravenously with phage as described above and, after perfusion through the heart, the skin was removed in large sections and placed on an ice cold plate with the hypodermis facing up. The skin was scraped with a scalpel to remove mostly hypodermis, which was then processed for phage recovery as described below.
# Approximately 250 to 300 individual bacterial colonies containing phage recovered from the various organs or tissues were grown for 16 hr in 5 ml NZY/tet. In some experiments, approximately 1000 individual bacteria containing phage were picked and the phage were amplified in 2 ml of NZY/tet or the entire plate containing phage was scraped, pooled and grown in bulk and processed for injection. Where phage were cultured separately, the cultures were pooled and the phage were injected into mice or rats as described above for a second round of in vivo panning. In some experiments, a third or fourth round of panning was performed. Phage DNA was purified from individual bacterial colonies obtained and the DNA sequences encoding the peptides expressed by selected phage were determined (see Koivunen et al., supra, 1994b).
# in After two or three rounds of in vivo panning of mice injected with a cyclic CX3CX3CX3C (SEQ ID NO: 25) phage display library, the peptide sequence CVALCREACGEGC (SEQ ID NO: 3), which appeared repeatedly in skin, was identified (Table 1). To determine the specificity of skin homing of the sequence CVALCREACGEGC (SEQ ID NO: 3), phage displaying the peptide was amplified individually, diluted to the same input titer and administered to mice. Following administration, control kidney and brain organ were removed and the number of TU of phage in skin, kidney and brain was determined.
# Peptides that were identified more than one time during screening are indicated by an asterisk. For example, 14% of recovered CX3CX3CX3C (SEQ ID NO: 25) phage that homed to head skin had the sequence CVDVCCDGCPVCC (SEQ ID NO: 437). Phage having the sequence RVPLSGDVEH (SEQ ID NO: 438), LRVMSFTSGQ (SEQ ID NO: 439), or RFSVGSLFGS (SEQ ID NO: 440) each constituted 14% of recovered CX10C (SEQ ID NO: 30) phage that homed to head skin.
# skin [6] = assay: immunohistologic analysis of skin homing phage; format: in vivo, mice
# Experimental: Phage displaying homing peptides were detected in lung, pancreas and skin by immunostaining histologic sections obtained 5 min after administration of phage expressing a lung, pancreas or skin homing peptide (“peptide-phage”) to a mouse. Following administration of the peptide-phage, mice were handled as described above and various organs, including lung, pancreas and skin, were removed and fixed in Bouin's solution (SIGMA). Histologic sections were prepared and reacted with anti-M13 (phage) antibodies (Pharmacia Biotech; see U.S. Pat. No. 5,622,699, supra, 1997; Pasqualini and Ruoslahti, supra, 1996). Visualization of the bound anti-M13 antibody was performed using a second antibody conjugated to peroxidase (SIGMA) according to the manufacturer's instructions.
# Experiments were performed in skin using phage displaying the skin homing peptide CVALCREACGEGC (SEQ ID NO: 3). In these experiments, histological samples from the skin as well as control organs and tissues including lung and pancreas were prepared and examined by immunostaining as described above.
# murine MDP = biological target: T3, murine MDP (Mus musculus, UniProt P31428); assay: phage binding to COS-1 cells transfected with MDP; conditions: 5×10^6 COS-1 cells, 10^10 TU phage
# T3 construct: The amplified 1.3 kb murine MDP cDNA was digested with KpnI and XbaI, and inserted into the same sites of the pcDNA3 expression vector; expressed in transfected cells; host or cells: COS-1 cells, pcDNA3 expression vector
# T3 sequence (P31428 17-384): T1 sequence (P31428 17-384)
# Experimental: The COS-1 cell line, which is known to have low or no detectable level of MDP activity, has been used extensively to study MDP structure and function (Keynan et al., supra, 1996; Keynan et al., Biochem, J. 326:47-51 (1997)). COS-1 cells were trasfected with murine MDP and used to assay binding to SEQ ID NOS: 1 and 2 as described below.
# For transfection into COS-1 cells, a murine MDP expression vector was prepared as follows. Total mouse lung RNA was isolated using Qiagen RNA purification columns (Qiagen; Santa Clarita, Calif.) and used as a template for first strand cDNA synthesis with reverse transcriptase and a mixture of random hexamers and poly-dT oligonucleotides (GIBCO/BRL; Grand Island, N.Y.). Mouse MDP cDNA (Pasqualini et al., J. Cell Biol. 130:1189-1196 (1995)) was amplified from the cDNA pool by PCR using the oligonucleotide pair: […] (SEQ ID NO: 446), which contains a KpnI adaptor, and […] (SEQ ID NO: 447), which contains an XbaI adaptor, using Taq polymerase from GIBCO/BRL. The amplified 1.3 kb murine MDP cDNA was digested with KpnI and XbaI, and inserted into the same sites of the pcDNA3 expression vector (Invitrogen; Carlsbad, Calif.) using DNA restriction enzymes and T4 DNA ligase from New England Biolabs (Beverly, Mass.). Successful cloning of the murine MDP cDNA was confirmed by DNA sequencing. Transfection of the COS-1 cells was performed with the Superfect Reagent from Qiagen as recommended by the manufacturer.
# as §1
compound,measurement,setting,value
"CCCCC/C=C(\NC(=O)C1CC1(C)C)C(=O)O (racemic) [Z-2-(2,2 dimethylcyclopropanecarboxamido)-2-octenoic acid]",activity of resolved isomers,MDP [1],Activity resides in the dextrorotatory isomer
GRGESP: control peptide [reference compound],inhibition of GFE-1 phage binding to lung cells,lung primary cells,no effect
same,binding of lung surface protein to peptide affinity column,[2],No proteins in the 55 kDa range were detected
"O=c1[nH]cc(F)c(=O)[nH]1 [CARAC, reference compound]",inhibition of hydrolysis of Gly-D-Phe by MDP,MDP [3],did not inhibit the enzyme
same,toxicity to the melanoma cells,[4],Neither the GFE-1 (SEQ ID NO: 1) or CARAC (SEQ ID NO: 443) peptides exhibited toxicity
CVALCREACGEGC [skin homing peptide],% OF MOTIF AMONG ALL CLONES,skin [5]; SKIN,6%
same,skin/brain phage ratio,skin [5]; SKIN section,7
same,phage bound to skin than to kidney or brain,skin [5]; individually amplified phage,7 ×
same,enriched in skin over unselected phage,"skin [5]; mouse, in vivo",7 ×
same,selectivity for skin over unselected phage and over background in brain and kidney,"skin [5]; mouse, in vivo",7 fold
same,immunostaining of skin,skin [6]; 5 min after phage,staining in blood vessels of the hypodermis
same,staining of lung and pancreas after skin homing phage,skin [6]; control tissues,no staining was observed in control the lung and pancreas
same,phage bound to MDP transfected cells than to mock transfected cells,murine MDP,no specific binding
